Key:
[1] = in vitro metabolism: hydrolytic conversion of NSAID amides to free carboxylic acids; type: in vitro ADME, NZA rabbit; settings: rabbit iris/ciliary body, 36° C.; for rate of drug hydrolysis by the ICB: GBR buffer pH 7.6, four to six hours; for hydrolytic bioactivation by the ICB (result in words): GBR buffer pH 7.6
Method: Freshly dissected iris/ciliary body from the NZA rabbit was incubated at 36° C. for a period of four to six hours in 0.5 ml of GBR buffer (pH 7.6) supplemented with amide derivatives of the indicated NSAIDs. Samples of 0.1 ml were removed for HPLC analysis to monitor the hydrolytic conversion of NSAID amides to free carboxylic acids.

[2] = system: paracentesis-induced breakdown of the BAB; experiment: inhibition of trauma-induced ocular inflammation (rabbit model of paracentesis); type: in vivo; settings: for topical ocular in vivo antiinflammatory activity (result in words): 0.1% topical ocular dose, rabbit paracentesis model; for inhibition of paracentesis-induced breakdown of the BAB: single 50 μL topical ocular drop of 0.1% solution/suspension 45 minutes prior to paracentesis, rabbit
Method: Effects of a single prophylactic topical ocular dose of the tested compounds were examined in a rabbit model of paracentesis (Graff, et al., Ocular Immunol. Inflamm., 6:227-238 (1998)). Briefly, a single 50 μL drop of a 0.1% drug solution/suspension was administered topically onto the eye 45 minutes prior to paracentesis and removal of ˜150 μL of aqueous humor. Thirty minutes after execution of paracentesis aqueous humor was removed (˜100 μL) for analysis. Both pre- and post-paracentesis samples were assayed for protein and PGE2 content.

[3] = in vitro corneal drug permeation (perfusion chamber, HPLC); type: in vitro ADME, NZA rabbits; settings: continued drug perfusion of the corneal epithelium, excised rabbit cornea, GBR buffer
Method: Freshly excised corneas were obtained from 6-week old NZA rabbits (1.3-1.5 kg). Corneas were mounted in a modified Lucite perfusion chamber and perfused with glutathione-supplemented bicarbonated Ringer (GBR) buffer as previously described^1. Drug concentrations in GBR buffer were as indicated (FIG. 1), with the corneal epithelial cell layer facing the drug containing donor compartment. The final volume of the donor and receiver side of the perfusion chamber was 7.0 mL. Samples of 0.1 mL were withdrawn from both chambers at the beginning of the experiment and at 20 to 30 minute intervals thereafter through six hours. Samples were mixed with an equal volume of methanol and immediately subjected to HPLC analysis. HPLC analysis was carried out on a 25 cm×4.6 mm I.D. Spherosorb RP-18, 10μ column at a flow rate of 2.0 ml/min. The column effluent was monitored with a flow monitor at a wavelength of 230 nm. Elution of NSAID free acids and amides was accomplished with an eluant mixture composed of methanol:water:phosphoric acid (60/40/1 (v/v/v)) (pH 3.0). The eluant mixture was changed to methanol:water:phosphoric acid (60/40/1 (v/v/v)) (pH 3.0) when suprofen and suprofen amide were subjected to HPLC analysis.

SMILES | rate of drug hydrolysis by the ICB [1] [nM/min/mg tissue] | hydrolytic bioactivation by the ICB (result in words) [1] | inhibition of paracentesis-induced breakdown of the BAB [2] [%] | also measured
NC(=O)Cc1cccc(C(=O)c2ccc(Br)cc2)c1N [amide derivative of bromfenac] | 0.17 |  |  | 
CN(C)C(=O)Cc1cccc(C(=O)c2ccc(Br)cc2)c1N [dimethyl amide derivative of bromfenac, N,N-dimethyl 2-amino-3-(4-bromobenzoyl)benzeneacetamide] |  | resistant to hydrolytic bioactivation |  | topical ocular in vivo antiinflammatory activity (result in words) [2]: no antiinflammatory effects were detectable
CC(C(N)=O)c1ccc(-c2ccccc2)c(F)c1 (stereo not drawn) [amide derivative of flurbiprofen, 2-(3-fluoro-4-phenyl)-propionamide] | 0.29 |  | 29 | 
CNC(=O)Cc1cccc(C(=O)c2ccc(Br)cc2)c1N [monomethyl amide derivative of bromfenac, N-methyl 2-amino-3-(4-bromobenzoyl)benzeneacetamide] | 0.16 |  |  | 
CC(C(N)=O)c1ccc(C(=O)c2cccs2)cc1 (stereo not drawn) [amide derivative of suprofen, α-methyl-4-(2-thienylcarbonyl)-benzeneacetamide] |  | resistant to hydrolytic bioactivation |  | 
NC(=O)Cc1ccccc1Nc1c(Cl)cccc1Cl [amide derivative of diclofenac] |  | resistant to hydrolytic bioactivation |  | permeation coefficient [3]: 7.8 cm/min^−1×10^−5; topical ocular in vivo antiinflammatory activity (result in words) [2]: no antiinflammatory effects were detectable
NC(=O)Cc1cccc(C(=O)c2ccccc2)c1N [amide derivative of amfenac] | 0.69 |  | 64 | permeation coefficient [3]: 7.4 cm/min^−1×10^−5
CC(C(=O)O)c1ccc(-c2ccccc2)c(F)c1 (stereo not drawn) [flurbiprofen] |  |  | 50 | 
NC(=O)C1CCn2c(C(=O)c3ccccc3)ccc21 (stereo not drawn) [amide derivative of ketorolac, 5-benzoyl-2,3-dihydro-1H-pyrrolizine-1-carboxamide] | 2.42 |  |  | 
